Measurements as given in patent US9078851B2, “Composition for preventing or treating a spinal cord injury” (UNIVERSITY-INDUSTRY COOPERATION GROUP OF KYUNG HEE, priority 2009, dated 2015).

Experiments:
Type in all cases: in vivo, rat
[1] = system: M2 (ED1 positive, CD206 positive) phenotype macrophages; experiment: MACS assay of M1/M2 phenotype macrophages in spinal cord injury model; conditions: tail vein injection, five days after spinal cord injury
Protocol: (§1) For the present experiment, male white mice (Sprague-Dawley 240-250 g, 7 weeks, 10 mice) were under general anesthetics by an intraperitoneal injection of Ketamin (80 mg/kg, Yuhan Corporation) and Rompun (7.4 mg/kg, Bayer Korea Corporation). Laminectomy was performed at spine T9-10 level to expose a spinal cord keeping intact dura. And then, rat was put on Spinal cord dropping device (NYU); spine processes at T8 and T11 sites were fixed by using a clamp, respectively; then, a rod (diameter 2 mm, weight 10 g) was dropped from 25 mm height vertical to dorsal part of spinal cord followed by suturing injury site muscle and skin. […]
Microglia and macrophage have an inflammatory macrophage phenotype (M1) and selectively activated macrophage phenotype (M2). […] MACS (Miltenyi Biotec, Bergisch Gladbach) assay was performed in order to determine a quantitative amount of M1 (ED1 positive, CD206 negative) and M2 (ED1 positive, CD206 positive) phenotype macrophages after Substance P-injection in a spinal cord injury model.
At immediately, 1 d, 2d, Substance P or saline (the same volume without Substance P) was injected to a tail vein after a spinal cord injury, using the same method as (1) of Example 1. […] Magnetically labeled cells were collected by washing the column and then counted. […]

caspase-3 = experiment: Western blot of cleaved caspase-3 in spinal cord tissue; conditions: tail vein injection, one day and five days after injury
Protocol: as §1, with “skin. The rat of Sham-operated control group was performed only laminectomy at same area without damaging spinal cord injury (marked by ‘sham” in figures; hereinafter, the same as above).” for “skin.”
(2) Substance P or saline (the same volume without Substance P) was injected to a tail vein of mice, respectively at immediately, 1 d, 2 ds after a spinal cord injury, using the same method as (1) of Example 1. […] The amounts of proteins in supernatant were determined by using BCA assay (Pierce). […] At this time, β-Tubulin was used as an inner comparing group, and each result were determined by performing four independent experiments.

[2] = system: IL-10 expression in nerve cell; experiment: Immunofluorescence staining of IL-10 in nerve cells and microglia/macrophages after spinal cord injury; conditions: tail vein injection; one day after spinal cord injury
Protocol: For the present experiment, male white mice (Sprague-Dawley 240-250 g, 7 weeks, 10 mice) were under general anesthetics by an intraperitoneal injection of Ketamin (80 mg/kg, Yuhan Corporation) and Rompun (7.4 mg/kg, Bayer Korea Corporation). Laminectomy was performed at spine T9-10 level to expose a spinal cord keeping intact dura. And then, rat was put on Spinal cord dropping device (NYU); spine processes at T8 and T11 sites were fixed by using a clamp, respectively; then, a rod (diameter 2 mm, weight 10 g) was dropped from 25 mm height vertical to dorsal part of spinal cord followed by suturing injury site muscle and skin. The rat of Sham-operated control group was performed only laminectomy at same area without damaging spinal cord injury (marked by ‘sham” in figures; hereinafter, the same as above).
Substance P (marked by ‘SP’ in figures; hereinafter, the same as above) dissolved in saline of 5 nmol/kg concentration was injected through tail vein at immediately, 24 hours, and 48 hours after a spinal cord injury for experimental groups. At sham control group, same volume of saline (marked by ‘vehicle’ in figures; hereinafter, the same as above) without Substance P was injected at same time points. Operation were performed on an electric heating pad of 37° C., and then rat were transferred to cage after awake from the anesthetic. • (2) Preparation of Tissue […]

In the case of Substance P, the “CD-206 positive percentage as compared with the control” value [1] is reported as “about 6.5 times”, the “activated microglia/macrophages CD-206 positive” value [1] is reported as 58.7% and the “activation of caspase-3” value (caspase-3) is reported as “significantly decreased”. The “IL-10 expression in cells” value [2] was “specifically expressed at a nerve cell”.
